Patent US20250026721A1, “COMPOUNDS AND METHODS FOR MODULATING RAS-PI3K” (Vividion Therapeutics, Inc., priority 2023, published 2025)

Molecular target: T1, PIK3CA_C242 (Homo sapiens, UniProt P42336)
T1 construct: endogenous in cells; host or cells: Jurkat cell lysate
Test: Proteomic TE50 (IA-DTB / TMT mass spectrometry) in Jurkat cell lysate
Type: binding
Conditions: 1 hour at rt, 7-point dose response
Description: Example 4. Proteomic TE50 In vitro TE50 values for PIK3CA_C242 were obtained by treating 500 μg of cell lysate generated from Jurkat cells with DMSO or compound for 1 hour at rt followed by the addition of 200 μM desthiobiotin polyethyleneoxide iodoacetamide (IA-DTB) in DMSO for one hour at rt. Compounds were serially diluted 1:5 for a total of 7 points in order to generate dose response curves. Samples were then precipitated by the addition of 8× ice cold acetone and incubated at -80° C. for two hours. Protein was then pelleted by centrifugation (4,200 RPM, 45 min, 4° C.). The pelleted material was resuspended in 9M urea, 50 mM ammonium bicarbonate and proteins were reduced and alkylated by the addition of DTT and iodoacetamide (10 and 30 mM, respectively). Following reduction and alkylation, samples were exchanged into 2M urea (Zeba spin desalting plates, Thermo Fisher) and digested with Trypsin. IA-DTB labeled peptides were isolated with streptavidin agarose resin. Enriched peptides were eluted by the addition of 50% acetonitrile (ACN) 0.1% formic acid (FA) and dried in a SpeedVac vacuum concentrator. […] Reactions were quenched by the addition of 6.5 μL of 5% hydroxylamine. Samples were then combined and desalted on a Evolute express ABN plate (Biotage, 600-0010-PX01). Targeted TMT measurements were collected using an Orbitrap Lumos Tribrid Mass Spectrometer (Thermo Scientific) coupled to an UltiMate 3000 Series Rapid Separation LC system and autosampler (Thermo Scientific Dionex). Peptides were eluted onto a custom C18 capillary analytical column (75-μm inner diameter fused silica, packed with Acclaim PepMap C18 resin; Thermo Scientific) using an Acclaim PepMap 100 (Thermo 164535) loading column, and separated at a flow rate of […]. Data were acquired using a specific MS3-based TMT method targeting the peptide containing […], +2 charge state) where MS2 peptide fragmentation is triggered upon detection of the peptide precursor ion. Subsequent MS3 analysis was then performed using pre-selected peptide fragment ions that were isolated for fragmentation using synchronous precursor selection. RAW files were converted to MZXML format and searched with the SEQUEST algorithm using the […] software package. TMT quantitation was performed with a filter requiring at least ten summed signal-to-noise (S/N) for control channels. TE50 values were calculated from 7-point dose response curves created using the reporter ion S/N for each channel.

T1 sequence (P42336 whole entry): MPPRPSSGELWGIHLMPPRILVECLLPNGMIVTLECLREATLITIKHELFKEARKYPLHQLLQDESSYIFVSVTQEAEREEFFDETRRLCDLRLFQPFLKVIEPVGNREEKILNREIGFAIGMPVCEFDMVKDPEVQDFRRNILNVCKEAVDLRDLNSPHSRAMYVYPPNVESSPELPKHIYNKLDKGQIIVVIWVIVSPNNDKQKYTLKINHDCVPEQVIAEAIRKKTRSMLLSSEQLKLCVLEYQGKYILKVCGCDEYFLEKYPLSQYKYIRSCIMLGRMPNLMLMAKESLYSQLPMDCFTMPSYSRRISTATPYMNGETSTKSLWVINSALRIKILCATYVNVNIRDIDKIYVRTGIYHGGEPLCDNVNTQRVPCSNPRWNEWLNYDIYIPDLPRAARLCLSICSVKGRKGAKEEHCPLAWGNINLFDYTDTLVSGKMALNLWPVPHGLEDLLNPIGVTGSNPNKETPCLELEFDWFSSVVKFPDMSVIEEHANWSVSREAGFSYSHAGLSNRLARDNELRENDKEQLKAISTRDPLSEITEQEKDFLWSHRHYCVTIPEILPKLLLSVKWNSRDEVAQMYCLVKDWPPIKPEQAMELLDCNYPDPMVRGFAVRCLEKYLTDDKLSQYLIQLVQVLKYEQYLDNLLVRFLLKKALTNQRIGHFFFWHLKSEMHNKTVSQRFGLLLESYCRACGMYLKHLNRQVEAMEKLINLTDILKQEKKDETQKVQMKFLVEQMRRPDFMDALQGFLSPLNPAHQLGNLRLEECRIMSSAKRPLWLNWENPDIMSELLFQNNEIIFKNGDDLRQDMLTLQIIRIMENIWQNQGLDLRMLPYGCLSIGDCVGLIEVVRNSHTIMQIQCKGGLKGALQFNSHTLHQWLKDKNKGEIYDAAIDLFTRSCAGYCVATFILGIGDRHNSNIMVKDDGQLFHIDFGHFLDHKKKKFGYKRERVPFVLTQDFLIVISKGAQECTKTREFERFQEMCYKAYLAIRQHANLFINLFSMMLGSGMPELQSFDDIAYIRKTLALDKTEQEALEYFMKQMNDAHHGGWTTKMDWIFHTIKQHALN
T1 sequence (P27986 whole entry partner): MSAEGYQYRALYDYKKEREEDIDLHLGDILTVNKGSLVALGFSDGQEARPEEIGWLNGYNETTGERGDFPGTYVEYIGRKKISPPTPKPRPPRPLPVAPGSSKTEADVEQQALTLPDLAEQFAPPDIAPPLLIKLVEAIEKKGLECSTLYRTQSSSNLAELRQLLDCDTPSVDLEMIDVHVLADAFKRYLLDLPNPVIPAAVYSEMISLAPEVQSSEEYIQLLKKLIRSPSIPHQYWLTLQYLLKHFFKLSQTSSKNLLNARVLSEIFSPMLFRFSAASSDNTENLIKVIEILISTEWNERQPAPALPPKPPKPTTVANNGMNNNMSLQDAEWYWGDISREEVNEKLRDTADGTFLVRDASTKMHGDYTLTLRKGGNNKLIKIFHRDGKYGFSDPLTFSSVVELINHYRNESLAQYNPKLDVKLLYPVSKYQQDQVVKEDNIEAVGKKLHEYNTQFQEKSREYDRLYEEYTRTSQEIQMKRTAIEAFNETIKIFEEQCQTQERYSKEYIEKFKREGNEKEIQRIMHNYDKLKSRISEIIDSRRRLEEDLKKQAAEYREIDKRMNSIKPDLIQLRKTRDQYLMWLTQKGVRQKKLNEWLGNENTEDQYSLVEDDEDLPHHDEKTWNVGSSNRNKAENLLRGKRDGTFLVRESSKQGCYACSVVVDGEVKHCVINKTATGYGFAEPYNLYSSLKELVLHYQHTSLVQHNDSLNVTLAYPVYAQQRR

| IC50 [nM] | SMILES |
| --- | --- |
| 895 | C[C@H](/C=C\S(C)(=O)=O)NC(=O)C1(F)CCN(C(=O)[C@@H]2CN(C(=O)OC(C)(C)C)C[C@@H]2c2ccccc2Cl)CC1 (racemic) [Compound 158, tert-butyl(3RS,4RS)-3-(2-chlorophenyl)-4-(4-fluoro-4-(((R,Z)-4-(methylsulfonyl)but-3-en-2-yl)carbamoyl)piperidine-1-carbonyl)pyrrolidine-1-carboxylate] |
| 88.5 | C[C@@H](/C=C\S(C)(=O)=O)NC(=O)C1(F)CCN(S(=O)(=O)c2ccc(Cl)cc2-c2ccccc2)CC1 [Compound 2, (S,Z)-1-((5-chloro-[1,1′-biphenyl]-2-yl)sulfonyl)-4-fluoro-N-(4-(methylsulfonyl)but-3-en-2-yl)piperidine-4-carboxamide] |
| 70.1 | COc1ccc(S(=O)(=O)N2CCC(F)(C(=O)N[C@@H](C)/C=C\S(C)(=O)=O)CC2)c(-c2ccccc2Cl)c1 [Compound 11, (S,Z)-1-((2′-chloro-5-methoxy-[1,1′-biphenyl]-2-yl)sulfonyl)-4-fluoro-N-(4-(methylsulfonyl)but-3-en-2-yl)piperidine-4-carboxamide] |
| 66 | COc1ccc(S(=O)(=O)N2CCC(F)(C(=O)N[C@@H](C)/C=C\S(C)(=O)=O)CC2)c(-c2ccccc2C)c1 [Compound 12, (S,Z)-4-fluoro-1-((5-methoxy-2′-methyl-[1,1′-biphenyl]-2-yl)sulfonyl)-N-(4-(methylsulfonyl)but-3-en-2-yl)piperidine-4-carboxamide] |
| 630 | COc1ccc(S(=O)(=O)N2CCC(F)(C(=O)N[C@H](C)/C=C\S(C)(=O)=O)CC2)c(-c2cc(F)ccc2Cl)c1 [Compound 28, (R,Z)-1-((2′-chloro-5′-fluoro-5-methoxy-[1,1′-biphenyl]-2-yl)sulfonyl)-4-fluoro-N-(4-(methylsulfonyl)but-3-en-2-yl)piperidine-4-carboxamide] |
| 750 | COc1cccc(-c2cc(Cl)ccc2S(=O)(=O)N2CCC(F)(C(=O)NC/C=C/S(C)(=O)=O)CC2)c1 [Compound 36, (E)-1-((5-chloro-3′-methoxy-[1,1′-biphenyl]-2-yl)sulfonyl)-4-fluoro-N-(3-(methylsulfonyl)allyl)piperidine-4-carboxamide] |
| 297 | CS(=O)(=O)/C=C/CNC(=O)C1(F)CCN(S(=O)(=O)c2ccc(Cl)cc2-c2ccccc2)CC1 [Compound 37, (E)-1-((5-chloro-[1,1′-biphenyl]-2-yl)sulfonyl)-4-fluoro-N-(3-(methylsulfonyl)allyl)piperidine-4-carboxamide] |
| 644 | COc1ccc(S(=O)(=O)N2CCC(F)(C(=O)NC/C=C/S(C)(=O)=O)CC2)c(-c2ccccc2)c1 [Compound 38, (E)-4-fluoro-1-((5-methoxy-[1,1′-biphenyl]-2-yl)sulfonyl)-N-(3-(methylsulfonyl)allyl)piperidine-4-carboxamide] |
| 716 | COc1cccc(-c2cc(OC)ccc2S(=O)(=O)N2CCC(F)(C(=O)NC/C=C/S(C)(=O)=O)CC2)c1 [Compound 39, (E)-1-((3′,5-dimethoxy-[1,1′-biphenyl]-2-yl)sulfonyl)-4-fluoro-N-(3-(methylsulfonyl)allyl)piperidine-4-carboxamide] |
| 210 | CS(=O)(=O)/C=C/CNC(=O)C1(F)CCN(S(=O)(=O)c2ccc(Cl)cc2-c2ccccc2Cl)CC1 [Compound 40, (E)-1-((2′,5-dichloro-[1,1′-biphenyl]-2-yl)sulfonyl)-4-fluoro-N-(3-(methylsulfonyl)allyl)piperidine-4-carboxamide] |
| 290 | COc1ccc(S(=O)(=O)N2CCC(F)(C(=O)NC/C=C/S(C)(=O)=O)CC2)c(-c2cccc(Cl)c2)c1 [Compound 41, (E)-1-((3′-chloro-5-methoxy-[1,1′-biphenyl]-2-yl)sulfonyl)-4-fluoro-N-(3-(methylsulfonyl)allyl)piperidine-4-carboxamide] |
| 624 | COc1cccc(-c2cc(C)ccc2S(=O)(=O)N2CCC(F)(C(=O)NC/C=C/S(C)(=O)=O)CC2)c1 [Compound 42, (E)-4-fluoro-1-((3′-methoxy-5-methyl-[1,1′-biphenyl]-2-yl)sulfonyl)-N-(3-(methylsulfonyl)allyl)piperidine-4-carboxamide] |
| 264 | COc1ccc(S(=O)(=O)N2CCC(F)(C(=O)NC/C=C/S(C)(=O)=O)CC2)c(-c2ccccc2Cl)c1 [Compound 43, (E)-1-((2′-chloro-5-methoxy-[1,1′-biphenyl]-2-yl)sulfonyl)-4-fluoro-N-(3-(methylsulfonyl)allyl)piperidine-4-carboxamide] |
| 313 | COc1ccc(S(=O)(=O)N2CCC(F)(C(=O)NC/C=C/S(C)(=O)=O)CC2)c(-c2ccccc2C)c1 [Compound 44, (E)-4-fluoro-1-((5-methoxy-2′-methyl-[1,1′-biphenyl]-2-yl)sulfonyl)-N-(3-(methylsulfonyl)allyl)piperidine-4-carboxamide] |
| 420 | CS(=O)(=O)/C=C/CNC(=O)C1(F)CCN(S(=O)(=O)c2ccc(Cl)cc2-c2cccc(Cl)c2)CC1 [Compound 45, (E)-1-((3′,5-dichloro-[1,1′-biphenyl]-2-yl)sulfonyl)-4-fluoro-N-(3-(methylsulfonyl)allyl)piperidine-4-carboxamide] |
| 460 | CC#Cc1cccc(-c2cc(Cl)ccc2S(=O)(=O)N2CCC(F)(C(=O)NC/C=C/S(C)(=O)=O)CC2)c1 [Compound 46, (E)-1-((5-chloro-3′-(prop-1-yn-1-yl)-[1,1′-biphenyl]-2-yl)sulfonyl)-4-fluoro-N-(3-(methylsulfonyl)allyl)piperidine-4-carboxamide] |
| 66.7 | COc1cccc(-c2cc(Br)ccc2S(=O)(=O)N2CCC(F)(C(=O)N[C@@H](C)/C=C\S(C)(=O)=O)CC2)c1 [Compound 61, (S,Z)-1-((5-bromo-3′-methoxy-[1,1′-biphenyl]-2-yl)sulfonyl)-4-fluoro-N-(4-(methylsulfonyl)but-3-en-2-yl)piperidine-4-carboxamide] |
| 360 | COc1cccc(-c2cc(Br)ccc2S(=O)(=O)N2CCC(F)(C(=O)NC/C=C/S(C)(=O)=O)CC2)c1 [Compound 63, (E)-1-((5-bromo-3′-methoxy-[1,1′-biphenyl]-2-yl)sulfonyl)-4-fluoro-N-(3-(methylsulfonyl)allyl)piperidine-4-carboxamide] |
| 520 | N#C/C=C/CNC(=O)C1(F)CCN(S(=O)(=O)c2ccc(Cl)cc2-c2ccccc2Cl)CC1 [Compound 69, (E)-N-(3-cyanoallyl)-1-((2′,5-dichloro-[1,1′-biphenyl]-2-yl)sulfonyl)-4-fluoropiperidine-4-carboxamide] |
| 160 | COc1ccc(S(=O)(=O)N2CCC(F)(C(=O)NC/C=C\C#N)CC2)c(-c2ccccc2Cl)c1 [Compound 71, (Z)-1-((2′-chloro-5-methoxy-[1,1′-biphenyl]-2-yl)sulfonyl)-N-(3-cyanoallyl)-4-fluoropiperidine-4-carboxamide] |
| 510 | COc1cccc(-c2cc(Cl)ccc2S(=O)(=O)N2CCC(F)(C(=O)N[C@H](C)/C=C/S(C)(=O)=O)CC2)c1 [Compound 80, (R,E)-1-((5-chloro-3′-methoxy-[1,1′-biphenyl]-2-yl)sulfonyl)-4-fluoro-N-(4-(methylsulfonyl)but-3-en-2-yl)piperidine-4-carboxamide] |
| 930 | CC[C@H](/C=C\S(C)(=O)=O)NC(=O)C1(F)CCN(S(=O)(=O)c2ccc(N(C)C)cc2-c2ccccc2Cl)CC1 [Compound 85, (R,Z)-1-((2′-chloro-5-(dimethylamino)-[1,1′-biphenyl]-2-yl)sulfonyl)-4-fluoro-N-(1-(methylsulfonyl)pent-1-en-3-yl)piperidine-4-carboxamide] |
| 47 | C[C@@H](/C=C\S(C)(=O)=O)NC(=O)C1(F)CCN(S(=O)(=O)c2ccc(N(C)C)cc2-c2ccccc2Cl)CC1 [Compound 89, (S,Z)-1-((2′-chloro-5-(dimethylamino)-[1,1′-biphenyl]-2-yl)sulfonyl)-4-fluoro-N-(4-(methylsulfonyl)but-3-en-2-yl)piperidine-4-carboxamide] |
| 190 | CN(C)c1ccc(S(=O)(=O)N2CCC(F)(C(=O)NC/C=C/S(C)(=O)=O)CC2)c(-c2ccccc2)c1 [Compound 94, (E)-1-((5-(dimethylamino)-[1,1′-biphenyl]-2-yl)sulfonyl)-4-fluoro-N-(3-(methylsulfonyl)allyl)piperidine-4-carboxamide] |
| 100 | CN(C)c1ccc(S(=O)(=O)N2CCC(F)(C(=O)NC/C=C/S(C)(=O)=O)CC2)c(-c2ccccc2Cl)c1 [Compound 95, (E)-1-((2′-chloro-5-(dimethylamino)-[1,1′-biphenyl]-2-yl)sulfonyl)-4-fluoro-N-(3-(methylsulfonyl)allyl)piperidine-4-carboxamide] |
